Assays:
[1] = system: pancreatic cancer cells Panel; assay: Mitochondrial function by Seahorse; type: cell-based, human; settings: Seahorse after 6 hours; concentration-dependent
Protocol: To further verify the effect of ethidium bromide on mitochondrial function, various cell lines were treated with ethidium bromide and mitochondrial function was tested by using Seahorse after 6 hours.

[2] = system: RKO Colorectal cancer; assay: Median lethal dosage (IC50) against tumor cell lines; type: cell-based; settings: Homo sapiens; RKO colorectal cancer tumor cells
[3] = system: B16 Melanoma; assay: as above; type: cell-based; settings: Mus musculus; B16 melanoma tumor cells
[4] = Toxicity of ethidium bromide: routine blood, liver and kidney functions; type: in vivo, nude mice; settings: after 4 weeks of intravenous administration
Description: Finally, we also conducted a preliminary study on the toxicity of ethidium bromide by collecting whole blood and serum from the control and the dosing groups (administered intravenously for about 1 month) and tested their routine blood, and liver and kidney functions, respectively.

[5] = system: AOM+DSS-induced colorectal tumor; assay: AOM+DSS-induced spontaneous colorectal cancer mouse model; type: in vivo, mice
Protocol: The classical intraperitoneal injection of AOM and the spontaneous colorectal cancer formation by three rounds of DSS were utilized to construct a tumor mouse model. Mice were treated with ethidium bromide (500 mg/L dissolved in drinking water) one week after completion of the construction. […] Mice were sacrificed and their colorectum was taken for photographic observation and fixed staining.
To further verify the above results, we then expanded the sample size to about 10-16 mice per group and still used the above AOM+DSS protocol to induce spontaneous colorectal cancer formation in mice. […] Meanwhile, since it has been reported that zalcitabine (ddC) can effectively impair the function of mitochondria (mainly the replication of mtDNA, similar to ethidium bromide), we added the experimental group of zalcitabine (33 mg/Kg) as a control.
In addition, in order to investigate in what way ethidium bromide clears tumors in mice, we also tested cell proliferation (FIGS. 8A and B) and apoptosis (FIG. 8C-F) in tumor tissues and normal tissues surrounding the tumors in different treatment groups. Among them, cell proliferation was detected by immunohistochemistry of Ki67-positive cells, and apoptosis was detected by immunofluorescence staining of cleaved Caspase3.
To further verify whether ethidium bromide is still effective against already existing larger tumors (advanced colorectal cancer), we set aside a group of control mice (started administration 5 weeks after the end of induction, equivalent to the control group of mice described above) to administer them by gavage (20 mg/Kg per day).
We investigated the mechanism of ethidium bromide-induced apoptosis in tumor cells. First, tumor tissues treated with ethidium bromide (mice shown in FIGS. 7 and 8, treated for 4 weeks at 20 mg/Kg per day) were subjected to SDS-Loading buffer boiling lysis and tested for associated signaling pathways by Western blotting.

[6] = system: HepG2 Liver cancer; assay: Median lethal dosage (IC50) against tumor cell lines; type: cell-based; settings: Homo sapiens; HepG2 liver cancer tumor cells
[7] = system: pancreatic cancer cells Panc1; assay: Intraperitoneal injection of pancreatic cancer cells Panc1 in nude mice; type: in vivo; settings: for tumor in the pancreas: start 3 days after cell injection
Protocol: To further verify whether ethidium bromide can inhibit tumor migration in vivo, we injected 2×10^6 pancreatic cancer cells Panc1 intraperitoneally into nude mice, which were then divided into 3 groups: control group, gavage, and intravenous injection administration. Mice in the gavage-administration group were started with gavage oral administration of 20 mg/Kg ethidium bromide per day by gavage 3 days after intraperitoneal injection of pancreatic cancer cells. Mice in the intravenous administration group were administered with 5 mg/Kg ethidium bromide per day intravenously (Tail-IV) 3 days after intraperitoneal injection of pancreatic cancer cells.
In order to further investigate the anti-tumor effect of ethidium bromide on nude mice with advanced tumorigenicity and to obtain its effect on the viability of nude mice, we intraperitoneally injected the nude mice with 2×10^6 pancreatic cancer cells Panc1, which were then divided into 3 groups, the control group (no-treatment group), the early-injection group (administered intravenously after 3 days) and the late-injection group (administered intravenously after 14 days). Mice in the early injection group were administered with 5 mg/Kg ethidium bromide intravenously per day for 3 weeks 3 days after intraperitoneal injection of pancreatic cancer cells (starting intravenous administration after 3 days for about 3 weeks). Mice in the late injection group were administered with 5 mg/Kg ethidium bromide intravenously per day for 3 weeks starting 2 weeks days after intraperitoneal injection of pancreatic cancer cells (starting intravenous administration after 14 days for about 3 weeks).
In addition, we utilize the most advanced nuclear magnetic spectrometer uMR 9.4T with a 30 cm aperture magnet jointly developed by our work unit and Shanghai United Imaging Healthcare Co., LTD, as well as our self-developed GC, GPA, and VTC42 coils specially designed for abdominal scanning, and an optional PET insert system to achieve the PET-MR imaging results of the temporal and spatial integrality. The development of pancreatic cancer was followed dynamically in the control and dosing groups following intraperitoneal injection of pancreatic cancer cells. Mice were injected intraperitoneally with 2×10^6 pancreatic cancer cells, Panc1, and left for 2 weeks after which a visible tumor mass can be detected in the abdominal cavity to begin intravenous administration of 5 mg/Kg ethidium bromide for 4 weeks. […] Moreover, the abdominal cavity of the control mice was filled with ascites by the late stage (where the arrows are shown), whereas there was none in the dosing group (FIGS. 13A and 13B). […] However, clearance was not achieved mostly as in the previous results and we analyzed that it might be due to the fact that the mice were kept in a non-SPF environment during the whole administration period of MRI, thus affecting the effect of the drug.

[8] = system: C2C12; assay: Median lethal dosage (IC50) against normal cell lines; type: cell-based; settings: Mus musculus; C2C12 normal cells
[9] = system: 3T3-L1; assay: as above; type: cell-based; settings: Mus musculus; 3T3-L1 normal cells
[10] = system: GES1; assay: as above; type: cell-based; settings: Homo sapiens; GES1 normal cells
[11] = system: pancreatic cancer cells Panel; assay: Ectopic lung metastasis after intravenous injection of pancreatic cancer cells in nude mice; type: in vivo; settings: intravenous 5 mg/Kg per day, start about 3 weeks after cell injection, 4 weeks
Protocol: In addition, to further investigate the effect of ethidium bromide on ectopic tissue metastatic tumors, we injected 2×10^6 pancreatic cancer cells Panel intravenously into nude mice. After ectopic tissue metastasis, tumors formed primarily in the lungs. After approximately 3 weeks, intravenous administration of 5 mg/Kg ethidium bromide per day was started after the tumor had already grown in the lung tissue (FIG. 15A). The mice were sacrificed after 4 weeks of administration and the lungs were removed for test.

[12] = gavage 20 mg/Kg once daily, one month

SMILES: CC[n+]1c(-c2ccccc2)c2cc(N)ccc2c2ccc(N)cc21 [ethidium bromide, Ethidium bromide]
- oxygen consumption, glycolysis level, glycolysis rate [1]: significantly reduced
- IC50 [2]: 1.43 µM
- IC50 [3]: 11.2 µM
- liver or kidney function vs control ([4]; serum): no significant difference in liver or kidney function
- blood routine data (hemoglobin, platelets, leukocytes) ([4]; whole blood): very normal
- colorectal tumor mass ([5]; 500 mg/L in drinking water, start one week after model construction, 2 months): almost complete disappearance of the tumor mass
- cleaved Caspase3, phosphorylation of Erk, LC3 level in tumor tissues (Western blotting) ([5]; 4 weeks at 20 mg/Kg per day): significant increase in cleaved Caspase3
- body weight [5, 12]: little changed
- mice with complete disappearance of spontaneous colorectal tumors [5, 12]: more than 80%
- mtDNA copy number of colorectal tumors [5, 12]: did not alter the mitochondrial mtDNA copy number
- size of the spleen, length of colorectum, weight of tissue organs vs control [5, 12]: healthier
- mice achieving complete tumor clearance ([5]; larger (advanced) tumors, start 5 weeks after end of induction, gavage 20 mg/Kg per day, 1 month): more than 40%
- Caspase3-positive tumor cells (apoptotic cells, immunofluorescence) ([5]; vs other groups and surrounding normal tissues): significantly higher
- proliferation of tumor cells (Ki67-positive, immunohistochemistry) ([5]; vs other treatment groups): significantly lower
- IC50 [6]: 8.12 µM
- weight of the pancreas ([7]; administration group, especially intravenous injection, vs control): significantly smaller than that of the control group
- body weights ([7]; dosing group, intravenous 5 mg/Kg per day, 3 weeks): relatively stable
- pancreatic cancer tumor (weight) vs control ([7]; dosing groups, intravenous 5 mg/Kg per day, 3 weeks): significantly smaller than that in the control group
- nude mice with no tumor ([7]; early injection group: intravenous 5 mg/Kg per day from day 3, 3 weeks): More than 80%
- tumor in the pancreas ([7]; gavage 20 mg/Kg per day): still had a small amount of tumor, but was significantly smaller than that in the control group
- tumor in the pancreas ([7]; intravenous 5 mg/Kg per day): no tumor was found in the pancreas
- growth of pancreatic cancer in the abdominal cavity (MRI) ([7]; intravenous 5 mg/Kg, start 2 weeks after cell injection, 4 weeks): significantly inhibited, or almost completely inhibited
- body weight ([7]; intravenous injection compared with gavage): did not cause a significant decrease in body weight
- blood hemoglobin ([7]; late dosing group, intravenous 5 mg/Kg per day, 3 weeks): remained relatively normal
- tumors in the liver tissues vs control ([7]; late injection group): significantly reduced
- nude mice with no tumor at all ([7]; late injection group: intravenous 5 mg/Kg per day from day 14, 3 weeks): about 45%
- weights of liver and pancreatic tissues vs control ([7]; late-injected group): significantly smaller
- IC50 [8]: 85.5 µM
- IC50 [9]: 67.9 µM
- IC50 [10]: 64.7 µM
- tumors in the lung tissues vs control [11]: significantly smaller than those in the control group

— patent US20250152577A1, “Pharmaceutical Composition of Ethidium Bromide and Use in Treating Cancer” (RUIJIN HOSPITAL, SHANGHAI JIAOTONG UNIVERSITY SCHOOL OF …, priority 2022, published 2025)
